According to patent US9682089B2, “Methods and compositions for stimulating reepithelialisation during wound healing” (Institut National de la Sante et de la Recherche Medicale …, priority 2010, dated 2017):

Key:
ENaC = assay: real-time PCR analysis of ENaC subunit gene expression in skin of K5-MR neonates; assay type: in vivo, mouse; settings: K5-MR pups; pregnant mice were given canrenoate
Text: We took advantage of the K5-MR mouse model to question whether expression of ENaC and its main regulators may be altered by MR overexpression. Skin samples from control and K5-MR neonates were processed for real-time PCR analysis of gene expression.

[1] = tested on: keratinocyte outgrowth of skin explants; assay: ex vivo wound healing assay: organotypic culture of newborn mouse skin explants, keratinocyte outgrowth; assay type: cell-based; settings: 0.1 mM in culture medium, 7 days culture

C[C@]12CCC(=O)C=C1C=C[C@@H]1[C@@H]2CC[C@@]2(C)[C@H]1CC[C@@]2(O)CCC(=O)O [potassium canrenoate]
enhanced skin mRNA expression of all 3 subunits of ENaC (abnormal pattern of expression) (ENaC): blunted
impaired keratinocyte outgrowth of the explants ([1]; skin explants from K5-MR pups (MR overexpression in basal keratinocytes)): partially but significantly improved
keratinocyte outgrowth of the explants ([1]; skin explants from control pups): no effect
